# Experimental data published in paper PMC11056991, “Promising Anticancer Prodrugs Based on Pt(IV) Complexes with Bis-organosilane Ligands in Axial Positions” (Journal of Medicinal Chemistry, 2024).
# Tests used:
# [1] = system: HCT 116 human colon cancer cells; assay: MTT cell viability assay, HCT 116; assay type: cell-based; conditions: MTT
# Procedure: (§2) HIEC6 human healthy intestinal cells and HCT 116 and HT-29 human colon cancer cells were supplied by ATCC. Colon cancer cells were cultured in Dulbecco’s modified Eagle’s medium (DMEM) for HCT 116 and HT-29 supplemented with fetal bovine serum (10%). HIEC6 cells were cultured in Opti-MEM supplemented with fetal bovine serum (4%), HEPES (20 mM), glutamine (10 mM), and epidermal growth factor (10 ng/mL). Cells were maintained at 37 °C in a humidified atmosphere containing 5% CO2. Cells were seeded at 30% confluence in DMEM for HCT 116 and in Opti-MEM for HIEC6; after cell adhesion, HIEC6 cells were cultured in DMEM for 24h before being treated. All cells were treated with the indicated components at concentrations of 0.25–50 μM and incubated for 1–5 days as specified.
# (§3) The MTT assay relies on a colorimetric reaction based on the capacity of living cells to reduce MTT to formazan and change the color to purple, which is easily measured by colorimetry. This assay estimates the cellular viability after the indicated treatments. Cells were treated with MTT (1:10 in culture medium) and incubated at 37 °C for 3 h for HCT 116 and HT-29 or 6 h for HIEC6. After removal of the medium, the formazan was resuspended in DMSO, transferred to p96 plates, and analyzed by a SpectraFLUOR (Tecan) at 542 nm. In all cases, viability was measured in duplicates of each point in three independent experiments.
# [2] = 195Pt NMR reduction kinetics with ascorbic acid; assay type: physicochemical; conditions: AsA 4:1 excess, DMSO/D2O (4:1), 37 °C, 2, 6, 24 h
# Procedure: (§1) AsA presents an intracellular concentration of 1 mM, whereas the GSH concentration is 2 mM.[38] This reactivity was monitored by ^195Pt NMR at different times. Thus, by analyzing the different regions where the signals of Pt(II)/Pt(IV) species appear, it is possible to identify and assign the different compounds formed during the reaction. In most cases, the regions where the Pt(II) and Pt(IV) signals appear are separated by more than 3000 ppm.[33]
# We first studied the reduction of the complexes against AsA, monitoring the reaction in both the Pt(IV) and Pt(II) region at 2, 6, and 24 h. In both cases, we used a mixture of DMSO/D2O (4:1) to reach the solubilization of the complexes and the AsA. In the Pt(IV)-biSi-1 reduction experiment, during the first hour, only the signal at 1210 ppm appeared in the Pt(IV) region (Figure S13A), which corresponds to the original complex, and no signal was detected in the Pt(II) region.
# Each solution was then slowly added to 100 μL of a solution of the corresponding reducing agent (AsA or GSH in an excess of 4:1 against each complex) in D2O at 37 °C. After that, 100 μL of DMSO-d6 was added carefully to each mixture, reaching a final concentration of […] (DMSO-d6/D2O). All of these mixtures were performed using a thermoshaker. Each sample was monitored by ^195Pt NMR at 2, 6, and 24 h.
# [3] = system: HIEC6 human healthy intestinal cells; assay: MTT cell viability assay, HIEC6; assay type: cell-based; conditions: MTT; for Reduction in viability of healthy cells (HIEC6): 5 μM
# Procedure: as §2, §3
# [4] = Stability in DMEM by 195Pt NMR; assay type: physicochemical; conditions: DMSO-d6/DMEM 1:4, 37 °C, 0, 24, 48, 120 h
# Text: We then decided to evaluate the stability of the two Pt(IV) complexes in the medium (DMEM) used to carry out the in vitro experiments, monitoring their kinetics by ^195Pt NMR at different times to evaluate the possible species formed over time. DMEM is supplemented with proteins and other molecules essential for cell growth (Experimental Section). Thus, similar to the reduction assays, we analyzed the Pt(II)/Pt(IV) region where the expected species appear. […] Both Pt(IV)/Pt(II) signals disappeared after 48 h, most likely again because of the binding of the complex to the proteins.
# To each solution was then slowly and carefully added 300 μL of DMEM to avoid the precipitation of the complex, reaching a final concentration of 1:4 (DMSO-d6/DMEM). All these mixtures were performed using a thermoshaker. Each sample was monitored by ^195Pt NMR at 0, 24, 48, and 120 h.
# HCT 116 cells = assay: Trypan blue exclusion test; assay type: cell-based, human; conditions: HCT 116, 0.5 μM, 2 days
# Procedure: HCT 116 cells were harvested by trypsinization followed by centrifugation at 500g for 5 min. The cell pellet was resuspended in 1 mL of PBS. Equal volumes of trypan blue (Bio-Rad cat. no. 1450021) 0.4% and cell suspension were mixed and incubated for 1–3 min at room temperature, and cell counting was carried out using a TC20 Automated Cell Counter (Bio-Rad cat. no. 1450102). The percentage of viable cells was calculated by dividing the number of viable cells per milliliter by the number total of cells per milliliter) × 100. Representative images were acquired using a Zeis light microscope with a 20× objective.
# [5] = 195Pt NMR reduction kinetics with glutathione; assay type: physicochemical; conditions: GSH 4:1 excess, DMSO/D2O (4:1), 37 °C, 2, 6, 24 h
# Procedure: as §1
# The reactivity of both complexes toward the reducing agent GSH was also studied using the DMSO/D2O (4:1) mixture. […] In the Pt(II) region, two signals appeared after 24 h at −2728 and −3405 ppm (Figure 2G). The first value is consistent with the cis-PtN2SX fraction,[41],[42] meaning that this species, once reduced to its Pt(II) homologue, coordinates with GSH by displacing a chloride ligand. The second signal corresponds to another Pt(II) moiety with more than one ligand containing sulfur atoms. […]
# Each solution was then slowly added to 100 μL of a solution of the corresponding reducing agent (AsA or GSH in an excess of 4:1 against each complex) in D2O at 37 °C. […] Each sample was monitored by ^195Pt NMR at 2, 6, and 24 h.
# [6] = system: p53 protein levels in HCT 116 cells; assay: Western blot of p53 levels; assay type: cell-based, human; conditions: HCT 116, 48 h, increasing concentrations
# Procedure: Confocal imaging of the DNA damage response was followed by immunofluorescence of histone gH2Ax foci at double-strand DNA breaks (DSB) (Figure 4A). […] However, none of the Pt(IV) prodrugs were able to increase p53 levels even at concentrations higher than those needed to reduce cell viability.
# Cells were washed with iced PBS before extract preparation and scraped in whole-cell protein lysis buffer (62.5 mM Tris-HCl pH 6.8, 2% sodium dodecyl sulfate (SDS), 0.01% bromophenol blue sodium salt, and 10% glycerol). Whole-cell protein lysates were incubated 15 min at 95 °C and directly used as whole cell extract or frozen at −80 °C. Proteins from lysed cells or immunoprecipitates were denatured and loaded on sodium dodecyl sulfate polyacrylamide gels and then transferred to polyvinylidene difluoride membranes (Bio-Rad). After blocking with 5% (w/v) milk, the membrane was incubated with the corresponding primary antibodies, anti-p53 sc-126 (Santa Cruz Biotechnology) or anti-tubulin (Sigma-Aldrich), and secondary antibodies (Bio-Rad). The specific bands were analyzed using the ChemiDoc Imaging Systems (Bio-Rad).
# [7] = 2 days, (final complexes, Figure 3B)
# [8] = 2 days, experiment with intermediates, Figure 3A
compound,measurement,setting,value
"CCO[Si](CCCNC(=O)[O][Pt]([NH2])([NH2])([Cl])([Cl])[O]C(=O)NCCC[Si](OCC)(OCC)OCC)(OCC)OCC [Pt(IV)-biSi-1, cis-Dichloro(diamine)-trans-[3-(triethoxysilyl)propylcarbamate]platinum(IV)]","Cell viability, HCT 116 0.5uM 2 days","[1]; 0.5 uM, 2 days",70.1 ± 6.0%
same,Reduction of viability (cytotoxicity) of HCT 116 tumor cells,"[1]; 0.5 μM, 2 days",very similar to those of cisplatin
same,"Cell viability, HCT 116 0.5uM 5 days","[1]; 0.5 uM, 5 days",87.0 ± 5.0%
same,Reduction in viability of cancer cells (HCT 116),"[1]; 5 μM, 2 days",20%
same,"Cell viability, HCT 116 5uM 2 days",[1]; [7],78.8 ± 3.1%
same,IC50,"[1]; 48 h, supplementary CSV, read-out: IC50 (uM) HCT 116",8.9 ± 0.6 µM
same,Reduction of the Pt(IV) complex by AsA (Pt(IV) signal in 195Pt NMR),[2],"after 24 h, this signal underwent a marked decrease in intensity"
same,"Cell viability, HIEC6 0.5uM 2 days","[3]; 0.5 uM, 2 days",99.5 ± 1.8%
same,"Cell viability, HIEC6 0.5uM 5 days","[3]; 0.5 uM, 5 days",105.3 ± 3.6%
same,Reduction in viability of healthy cells (HIEC6),[3]; 2 days,60%
same,"Cell viability, HIEC6 5uM 2 days",[3]; [7],40.0 ± 1.8%
same,IC50,"[3]; 48 h, supplementary CSV, read-out: IC50 (uM) HIEC6",5.1 ± 0.7 µM
same,Stability in DMEM (Pt(IV) signal in 195Pt NMR),[4],"decreases with time up to 48 h, where a small fraction of the initial complex remains intact"
same,Reduction of viability by trypan blue staining,HCT 116 cells,20%
same,Reduction of the Pt(IV) complex by GSH (Pt(IV) signal in 195Pt NMR),[5],"at 24 h, there is still a fraction of free complex without undergoing reduction"
"N.N.[Cl][Pt][Cl] [cisplatin, Cisplatin, reference compound]",p53 levels,[6],increased p53 levels (at all concentrations)
same,"Cells survived, HCT 116","[1]; 5 μM, 5 days chronic treatment",more than 50%
same,Reduction in viability of healthy cells (HIEC6),[3]; 2 days,60%
same,Reduction of viability by trypan blue staining,HCT 116 cells,20%
"N.N.[Cl-].[Cl-].[OH-].[OH-].[Pt+4] [oxoplatin, cis-Dichloro(diamine)-trans-dihydroxoplatinum(IV), reference compound]","Cell viability, HCT 116 5uM 2 days",[1]; [8],82.9 ± 6.0%
same,"Cell viability, HIEC6 5uM 2 days",[3]; [8],65.3 ± 10.9%
"cis-Dichloro(diisopropylamine)-trans-dihydroxoplatinum(IV) [iproplatin, reference compound]","Cell viability, HCT 116 5uM 2 days",[1]; [8],73.6 ± 5.4%
same,"Cell viability, HIEC6 5uM 2 days",[3]; [8],69.8 ± 6.3%
